# Measurements: patent US11203601B2, “Tricyclic compounds as glycogen synthase kinase 3 (GSK3) inhibitors and uses thereof” (The Broad Institute, Inc., priority 2017, dated 2021)
# Experiments:
# Assay in all cases: Carna kinome panel
# Assay type in all cases: biochemical
# Details in all cases: read-out: % Inhibition at 10 μM of the test compound
# IGF1R = IGF1R (Homo sapiens (Human), UniProt P08069)
# MAP3K4_Cascade = MAP3K4_Cascade (Homo sapiens (Human), UniProt Q9Y6R4)
# SGK3 = SGK3 (Homo sapiens (Human), UniProt Q96BR1)
# RET(G691S) = RET(G691S) (Homo sapiens (Human), UniProt P07949, G691S)
# MAP3K2_Cascade = MAP3K2_Cascade (Homo sapiens (Human), UniProt Q9Y2U5)
# NEK1 = NEK1 (Homo sapiens (Human), UniProt Q96PY6)
# NEK9 = NEK9 (Homo sapiens (Human), UniProt Q8TD19)
# CK1γ2 = CK1γ2 (Homo sapiens (Human), UniProt P78368)
# EGFR(T790M) = EGFR(T790M) (Homo sapiens (Human), UniProt P00533, T790M)
# FGR = FGR (Homo sapiens (Human), UniProt P09769)
# FGFR4(V550L) = FGFR4(V550L) (Homo sapiens (Human), UniProt P22455, V550L)
# PASK = PASK (Homo sapiens (Human), UniProt Q96RG2)
# PDGFRα(T674I) = PDGFRα(T674I) (Homo sapiens (Human), UniProt P16234, T674I)
# PKN1 = PKN1 (Homo sapiens (Human), UniProt Q16512)
# EPHA4 = EPHA4 (Homo sapiens (Human), UniProt P54764)
# JNK3 = JNK3 (Homo sapiens (Human), UniProt P53779)
# CaMK2δ = CaMK2δ (Homo sapiens (Human), UniProt Q13557)
# CaMK4 = CaMK4 (Homo sapiens (Human), UniProt Q16566)
# CAMK1α = CAMK1α (Homo sapiens (Human), UniProt Q14012)
# WNK2 = WNK2 (Homo sapiens (Human), UniProt Q9Y3S1)
# TRKC = TRKC (Homo sapiens (Human), UniProt Q16288)
# MARK1 = MARK1 (Homo sapiens (Human), UniProt Q9P0L2)
# MNK1 = MNK1 (Homo sapiens (Human), UniProt Q9BUB5)
# TIE2 = TIE2 (Homo sapiens (Human), UniProt Q02763)
# MSSK1 = MSSK1 (Homo sapiens (Human), UniProt Q9UPE1)
# CDK7/CycH/MAT1 = CDK7/CycH/MAT1 (Homo sapiens (Human), UniProt P50613)
# PLK2 = PLK2 (Homo sapiens (Human), UniProt Q9NYY3)
# MLK2_ Cascade = MLK2_ Cascade (Homo sapiens (Human), UniProt Q02779)
# AXL = AXL (Homo sapiens (Human), UniProt P30530)
# MST3 = MST3 (Homo sapiens (Human), UniProt Q9Y6E0)
# RET(Y791F) = RET(Y791F) (Homo sapiens (Human), UniProt P07949, Y791F)
# PIM3 = PIM3 (Homo sapiens (Human), UniProt Q86V86)
# EPHA6 = EPHA6 (Homo sapiens (Human), UniProt Q9UF33)
# Experimental: Briefly, a selection of compounds was screened against a panel of kinases at a single concentration of 10 μM. […] This was completed using one of two assays, depending on the kinase being examined: 1) IMAP Assay. A solution of 4× inhibitor, 4× substrate/ATP/metal solution and 2× kinase solution was prepared with assay buffer (20 mM HEPES, 0.01% Tween-20, 2 mM DTT, pH 7.4) and mixed, then incubated in 384-well black plates for 1 hour at room temperature. The IMAP binding reagent (IMAP Screening Express kit; Molecular Devices) was added to each well and incubated for 30 minutes. […] 2) Off-Chip Mobility Shift Assay (MSA). A solution of 4× inhibitor, 4× substrate/ATP/metal solution and 2× kinase solution was prepared with assay buffer (20 mM HEPES, 0.01% Triton X-100, 2 mM DTT, pH 7.5) and mixed, then incubated in 384-well plates for 1 or 5 hours depending on the kinase, at room temperature. Termination buffer (QuickScout Screening assist MSA; Carna Biosciences) was added to each well. The entire reaction mixture was then applied to a LabChip3000 system (Caliper Life Science), and the product and substrate peptide peaks were separated and quantified. […] The entire reaction mixture was then applied to a LabChip3000 system (Caliper Life Science), and the product and substrate peptide peaks were separated and quantified.
# MST1 = MST1 (Homo sapiens (Human), UniProt Q13043)
# HIPK1 = HIPK1 (Homo sapiens (Human), UniProt Q86Z02)
# EPHA3 = EPHA3 (Homo sapiens (Human), UniProt P29320)
# EGFR(T790M/L858R) = EGFR(T790M/L858R) (Homo sapiens (Human), UniProt P00533, L858R/T790M)
# NPM1-ALK = NPM1-ALK (Homo sapiens (Human), UniProt P06748+Q9UM73)
# PKCη = PKCη (Homo sapiens (Human), UniProt P24723)
# IKKβ = IKKβ (Homo sapiens (Human), UniProt O14920)
# AXL, sequence (P30530 26-894): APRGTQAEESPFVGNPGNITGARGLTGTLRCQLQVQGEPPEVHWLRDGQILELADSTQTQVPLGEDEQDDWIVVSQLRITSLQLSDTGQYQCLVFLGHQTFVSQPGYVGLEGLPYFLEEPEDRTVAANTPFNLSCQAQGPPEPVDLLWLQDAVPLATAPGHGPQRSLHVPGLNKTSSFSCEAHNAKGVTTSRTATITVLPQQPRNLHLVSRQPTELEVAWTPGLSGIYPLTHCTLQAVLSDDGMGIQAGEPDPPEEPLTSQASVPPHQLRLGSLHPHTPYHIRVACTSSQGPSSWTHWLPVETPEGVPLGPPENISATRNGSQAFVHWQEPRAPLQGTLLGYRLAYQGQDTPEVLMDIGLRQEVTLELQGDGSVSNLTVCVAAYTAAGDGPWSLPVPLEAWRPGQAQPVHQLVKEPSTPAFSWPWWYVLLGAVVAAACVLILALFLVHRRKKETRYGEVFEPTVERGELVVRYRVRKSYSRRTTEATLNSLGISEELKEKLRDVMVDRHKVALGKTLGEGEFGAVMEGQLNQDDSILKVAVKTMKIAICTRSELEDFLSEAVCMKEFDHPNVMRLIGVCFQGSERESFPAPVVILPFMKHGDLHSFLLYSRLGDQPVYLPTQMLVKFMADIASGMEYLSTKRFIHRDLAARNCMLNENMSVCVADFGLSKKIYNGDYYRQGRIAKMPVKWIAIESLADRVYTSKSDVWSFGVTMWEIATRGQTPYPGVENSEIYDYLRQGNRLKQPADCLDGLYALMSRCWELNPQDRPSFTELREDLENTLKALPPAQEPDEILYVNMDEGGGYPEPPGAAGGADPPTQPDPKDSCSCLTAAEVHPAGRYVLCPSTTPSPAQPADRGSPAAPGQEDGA
# EPHA6, sequence (Q9UF33 23-1036): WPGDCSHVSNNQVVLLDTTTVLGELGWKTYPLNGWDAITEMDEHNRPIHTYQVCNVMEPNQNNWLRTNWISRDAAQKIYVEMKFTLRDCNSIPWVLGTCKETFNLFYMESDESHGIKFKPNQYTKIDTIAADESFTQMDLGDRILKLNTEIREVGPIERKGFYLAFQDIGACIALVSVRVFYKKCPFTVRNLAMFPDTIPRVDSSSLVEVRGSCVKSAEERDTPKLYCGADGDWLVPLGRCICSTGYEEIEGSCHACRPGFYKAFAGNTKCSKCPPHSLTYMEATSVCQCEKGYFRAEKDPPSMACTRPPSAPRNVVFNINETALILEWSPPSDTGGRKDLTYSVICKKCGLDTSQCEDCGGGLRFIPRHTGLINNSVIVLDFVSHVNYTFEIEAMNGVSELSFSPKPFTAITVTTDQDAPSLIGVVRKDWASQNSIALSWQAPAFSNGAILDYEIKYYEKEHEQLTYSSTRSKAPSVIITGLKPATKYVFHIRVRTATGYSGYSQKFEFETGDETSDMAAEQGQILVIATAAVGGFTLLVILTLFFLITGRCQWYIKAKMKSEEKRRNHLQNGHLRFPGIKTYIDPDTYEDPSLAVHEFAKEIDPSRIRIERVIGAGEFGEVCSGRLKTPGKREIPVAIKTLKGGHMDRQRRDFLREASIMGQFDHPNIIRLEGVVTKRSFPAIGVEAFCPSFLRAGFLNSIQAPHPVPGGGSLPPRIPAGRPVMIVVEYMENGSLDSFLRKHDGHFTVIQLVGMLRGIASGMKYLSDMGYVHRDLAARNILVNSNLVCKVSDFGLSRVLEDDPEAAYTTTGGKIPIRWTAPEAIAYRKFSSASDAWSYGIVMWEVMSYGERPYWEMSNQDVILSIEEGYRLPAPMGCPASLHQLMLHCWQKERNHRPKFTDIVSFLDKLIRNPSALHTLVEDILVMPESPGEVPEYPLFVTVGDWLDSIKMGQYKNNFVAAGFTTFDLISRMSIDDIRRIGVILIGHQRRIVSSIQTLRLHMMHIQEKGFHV
# RET(G691S), sequence (P07949 29-1114 G691S): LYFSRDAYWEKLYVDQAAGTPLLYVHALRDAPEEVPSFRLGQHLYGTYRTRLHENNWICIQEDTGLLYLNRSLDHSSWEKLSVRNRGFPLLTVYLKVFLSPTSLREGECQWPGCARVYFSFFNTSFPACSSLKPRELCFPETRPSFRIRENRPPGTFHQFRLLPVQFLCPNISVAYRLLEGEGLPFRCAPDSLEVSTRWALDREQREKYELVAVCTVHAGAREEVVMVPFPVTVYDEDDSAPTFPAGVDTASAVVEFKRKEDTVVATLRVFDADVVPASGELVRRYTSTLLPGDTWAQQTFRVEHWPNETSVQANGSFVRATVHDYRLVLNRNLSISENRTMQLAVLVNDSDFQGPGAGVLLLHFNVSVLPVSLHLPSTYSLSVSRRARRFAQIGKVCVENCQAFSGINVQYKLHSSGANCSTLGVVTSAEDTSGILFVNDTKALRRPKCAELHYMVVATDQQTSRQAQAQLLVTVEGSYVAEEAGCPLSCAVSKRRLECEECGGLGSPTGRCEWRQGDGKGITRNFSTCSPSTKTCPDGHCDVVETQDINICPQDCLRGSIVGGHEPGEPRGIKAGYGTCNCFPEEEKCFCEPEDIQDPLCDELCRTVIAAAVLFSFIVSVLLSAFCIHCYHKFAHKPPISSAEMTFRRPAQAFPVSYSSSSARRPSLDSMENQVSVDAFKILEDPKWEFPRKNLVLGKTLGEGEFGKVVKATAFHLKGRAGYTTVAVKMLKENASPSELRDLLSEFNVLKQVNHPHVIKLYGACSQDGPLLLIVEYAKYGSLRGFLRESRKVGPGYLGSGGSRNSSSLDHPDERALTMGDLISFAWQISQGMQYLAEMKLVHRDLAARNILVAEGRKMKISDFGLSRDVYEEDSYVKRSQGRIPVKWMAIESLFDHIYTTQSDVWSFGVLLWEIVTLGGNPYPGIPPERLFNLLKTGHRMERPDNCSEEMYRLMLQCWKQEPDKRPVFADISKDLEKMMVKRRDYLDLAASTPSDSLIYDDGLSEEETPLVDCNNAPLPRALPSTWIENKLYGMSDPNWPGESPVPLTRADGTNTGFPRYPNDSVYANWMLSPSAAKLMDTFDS
# MST3, sequence (Q9Y6E0 whole entry, species assumed): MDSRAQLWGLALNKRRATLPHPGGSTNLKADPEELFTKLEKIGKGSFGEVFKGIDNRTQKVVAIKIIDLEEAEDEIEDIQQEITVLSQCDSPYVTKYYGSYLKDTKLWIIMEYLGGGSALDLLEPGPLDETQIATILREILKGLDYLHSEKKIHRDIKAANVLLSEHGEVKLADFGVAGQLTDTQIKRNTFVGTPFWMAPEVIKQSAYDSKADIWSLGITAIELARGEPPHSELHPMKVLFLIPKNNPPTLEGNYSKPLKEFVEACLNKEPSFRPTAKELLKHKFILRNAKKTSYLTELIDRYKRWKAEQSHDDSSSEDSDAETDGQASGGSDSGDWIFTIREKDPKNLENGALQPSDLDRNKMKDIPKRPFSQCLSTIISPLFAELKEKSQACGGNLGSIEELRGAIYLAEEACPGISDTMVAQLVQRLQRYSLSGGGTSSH
# MNK1, sequence (Q9BUB5 whole entry): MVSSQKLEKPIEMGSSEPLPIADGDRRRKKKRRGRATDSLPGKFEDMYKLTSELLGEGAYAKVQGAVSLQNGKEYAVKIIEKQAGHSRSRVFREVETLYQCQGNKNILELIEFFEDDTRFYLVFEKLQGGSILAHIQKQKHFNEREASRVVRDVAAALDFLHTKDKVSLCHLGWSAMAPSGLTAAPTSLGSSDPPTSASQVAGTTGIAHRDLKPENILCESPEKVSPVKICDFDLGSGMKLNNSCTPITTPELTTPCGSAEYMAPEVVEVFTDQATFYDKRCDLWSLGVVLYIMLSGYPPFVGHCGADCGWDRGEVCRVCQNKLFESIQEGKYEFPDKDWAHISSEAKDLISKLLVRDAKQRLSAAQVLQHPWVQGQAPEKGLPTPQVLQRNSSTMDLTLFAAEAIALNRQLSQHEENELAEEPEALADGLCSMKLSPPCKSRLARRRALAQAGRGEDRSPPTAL
# EPHA3, sequence (P29320 21-983): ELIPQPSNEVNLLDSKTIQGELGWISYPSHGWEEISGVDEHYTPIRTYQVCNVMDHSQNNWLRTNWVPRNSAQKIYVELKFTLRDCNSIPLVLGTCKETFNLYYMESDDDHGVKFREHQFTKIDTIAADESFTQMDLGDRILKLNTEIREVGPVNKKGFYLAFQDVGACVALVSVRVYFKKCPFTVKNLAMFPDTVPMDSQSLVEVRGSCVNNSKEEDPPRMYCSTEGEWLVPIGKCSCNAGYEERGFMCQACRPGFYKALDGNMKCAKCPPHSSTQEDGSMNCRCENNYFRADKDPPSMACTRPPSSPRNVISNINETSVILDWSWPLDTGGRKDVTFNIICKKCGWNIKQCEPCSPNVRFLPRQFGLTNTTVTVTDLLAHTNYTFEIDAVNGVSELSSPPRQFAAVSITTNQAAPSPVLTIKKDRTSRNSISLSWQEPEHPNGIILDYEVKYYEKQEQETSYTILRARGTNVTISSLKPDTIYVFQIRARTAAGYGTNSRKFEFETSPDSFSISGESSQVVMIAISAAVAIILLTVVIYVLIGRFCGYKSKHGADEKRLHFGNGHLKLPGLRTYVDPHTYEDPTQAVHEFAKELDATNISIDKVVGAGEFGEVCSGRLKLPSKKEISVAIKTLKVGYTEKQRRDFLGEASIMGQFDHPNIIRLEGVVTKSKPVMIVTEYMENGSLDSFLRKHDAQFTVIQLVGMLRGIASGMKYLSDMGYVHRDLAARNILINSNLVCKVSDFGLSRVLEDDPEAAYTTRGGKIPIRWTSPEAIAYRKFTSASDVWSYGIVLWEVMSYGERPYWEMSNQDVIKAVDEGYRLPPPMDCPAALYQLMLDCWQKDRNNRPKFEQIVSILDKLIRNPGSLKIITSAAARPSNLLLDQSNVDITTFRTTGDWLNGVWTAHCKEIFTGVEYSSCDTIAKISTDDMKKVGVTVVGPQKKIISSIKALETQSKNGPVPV
# RET(Y791F), sequence (P07949 29-1114 Y791F): as the sequence (P07949 29-1114 G691S) above, with S663G, Y763F counted along it
compound,measurement,setting,value
"CCC1(c2ccccc2)C2=C(CC(C)(C)CC2=O)Nc2ncsc21 (stereo not shown) [Compound 1, 9-Ethyl-6,6-dimethyl-9-phenyl-5,6,7,9-tetrahydrothiazolo[4,5-b]quinolin-8(4H)-one]",inhibition at 10 µM,IGF1R,2%
same,inhibition at 10 µM,MAP3K4_Cascade,10.1%
same,inhibition at 10 µM,SGK3,-2.3%
same,inhibition at 10 µM,RET(G691S),2.8%
same,inhibition at 10 µM,MAP3K2_Cascade,3.4%
same,inhibition at 10 µM,NEK1,7.5%
same,inhibition at 10 µM,NEK9,0.3%
same,inhibition at 10 µM,CK1γ2,3.1%
same,inhibition at 10 µM,EGFR(T790M),-13.8%
same,inhibition at 10 µM,FGR,10.6%
same,inhibition at 10 µM,FGFR4(V550L),3.3%
same,inhibition at 10 µM,PASK,-5.2%
same,inhibition at 10 µM,PDGFRα(T674I),0.3%
same,inhibition at 10 µM,PKN1,8.9%
same,inhibition at 10 µM,EPHA4,0%
same,inhibition at 10 µM,JNK3,3.1%
same,inhibition at 10 µM,CaMK2δ,-8.6%
same,inhibition at 10 µM,CaMK4,-5.4%
same,inhibition at 10 µM,CAMK1α,-2.6%
same,inhibition at 10 µM,WNK2,0.5%
same,inhibition at 10 µM,TRKC,0.4%
same,inhibition at 10 µM,MARK1,-1.7%
same,inhibition at 10 µM,MNK1,-3.4%
same,inhibition at 10 µM,TIE2,11.1%
same,inhibition at 10 µM,MSSK1,1.2%
same,inhibition at 10 µM,CDK7/CycH/MAT1,22.6%
same,inhibition at 10 µM,PLK2,1.7%
same,inhibition at 10 µM,MLK2_ Cascade,16.1%
same,inhibition at 10 µM,AXL,6.5%
same,inhibition at 10 µM,MST3,1.4%
same,inhibition at 10 µM,RET(Y791F),-1.6%
same,inhibition at 10 µM,PIM3,1.1%
same,inhibition at 10 µM,EPHA6,21.3%
same,inhibition at 10 µM,MST1,-6.6%
same,inhibition at 10 µM,HIPK1,0.3%
same,inhibition at 10 µM,EPHA3,22.5%
same,inhibition at 10 µM,EGFR(T790M/L858R),-15.5%
same,inhibition at 10 µM,NPM1-ALK,-7.5%
same,inhibition at 10 µM,PKCη,9.3%
same,inhibition at 10 µM,IKKβ,2.3%
